Assay results from ChEMBL document CHEMBL3430912, “GSK Tres Cantos Anti-Kinetoplastid Screening (TCAKS) Data”.

What was measured:
NIH3T3 = assay: GSK_TCAKS: pIC50 NIH 3T3 cell line viability assay using luminiscence. Tissue culture surface treated assay plates (1536-well) were used. […] The 100% cells survival control was determined exposing the host-cells to a 0.5% DMSO concentration, whereas the 100% toxicity control was achieved by seeding the cells in presence of Amphotericin B at 50uM. Plates were incubated for four days at 37C, 5% CO2. The assay readout was developed by addition of 5uL of CellTiter-Glo Reagent following the manufacturer's instructions. Luminiscence was measured using a ViewLux.; assay type: functional, cell-based; details: Mus musculus, NIH3T3, 96 h
[1] = GSK_TCAKS: pIC50 HepG2 human cell line viability assay using luminiscence. […] Seeding density was checked to ensure that new mono-layers were not more than 50% confluent at the time of harvesting. Cell suspension was added to 500 mL of the same medium at a final density of 1.2 * 10^5 cells/mL. This cell suspension was dispensed (25 uL, 3000 cells per well) into 384-well clear-bottom plates using a Multidrop Combi dispenser. Prior to addition of the cell suspension, the screening compounds (250 nL) were pre-dispensed into the plates with an Echo liquid handler. Plates were incubated for 48 h at 37C, 5% CO2. After incubation, plates equilibrated at room temperature for 30 min before proceeding to develop the luminescent signal. The signal developer, CellTiter-Glo Reagent, was allowed to equilibrate at room temperature for 30 min and added to the plates (25uL per well) using a Multidrop Combi dispenser. Plates were left for 10 min at room temperature for stabilization and then read using a ViewLux.; assay type: toxicity, cell-based
[2] = molecular target: Sterol 14-alpha demethylase (Trypanosoma cruzi (strain CL Brener), UniProt Q7Z1V1); assay: GSK_TCAKS: pIC50 CYP51 from Trypanosoma cruzi.; assay type: functional
Sequence of Sterol 14-alpha demethylase (Q7Z1V1 whole entry): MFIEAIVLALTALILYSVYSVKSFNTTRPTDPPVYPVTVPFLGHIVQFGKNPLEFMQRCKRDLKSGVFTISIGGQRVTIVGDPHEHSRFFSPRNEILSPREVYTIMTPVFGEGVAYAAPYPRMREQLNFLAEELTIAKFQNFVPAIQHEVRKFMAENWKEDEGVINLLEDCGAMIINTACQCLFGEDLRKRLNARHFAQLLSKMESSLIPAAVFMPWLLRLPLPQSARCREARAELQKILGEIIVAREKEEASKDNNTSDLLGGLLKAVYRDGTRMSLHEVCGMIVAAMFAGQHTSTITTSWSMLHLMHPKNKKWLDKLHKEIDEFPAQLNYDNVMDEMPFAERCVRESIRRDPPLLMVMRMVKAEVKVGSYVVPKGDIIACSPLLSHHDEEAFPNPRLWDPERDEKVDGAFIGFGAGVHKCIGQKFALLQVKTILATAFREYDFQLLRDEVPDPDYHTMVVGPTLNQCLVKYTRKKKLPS

Trypanosoma cruzi [3] = assay: (§1) GSK_TCAKS: pIC50 H2C9 Imaging: H9c2 Host Cardiomyocytes. […] Cells were then washed once with PBS before infection. T. cruzi trypomastigotes, collected at days 5 to 8 after infection from LLC-MK2 parasite infected cultures, were allowed to swim out for 4h at 37C from a centrifuged pellet (2,500 rpm/10 min/room temperature). Trypomastigotes were then collected and counted in a CASY Cell Counter. Trypomastigotes, in supplemented DMEM, were added to H9c2 cultures in a multiplicity of infection of 1 and incubated for 18 h. Cells were washed once with PBS before incubation of the infected H9c2 monolayer with trypsin (Life-Technologies) to detach cells from the flask. Cells were counted in a CASY Cell Counter using a 150 um capillary and their density set at 5 * 10^4 cells per mL in supplemented assay DMEM. Infected H9c2 were dispensed into 384-well poly-lysine coated assay plates at 50uL per well using a Multidrop Combi dispenser. After seeding them, the plates were incubated at 37C, 5% CO2 for 72h. Cultures were then fixed and stained by addition of 50 uL of a solution containing 8% formaldehyde and 4 uM DRAQ5 DNA dye (BioStatus, UK) per well. […] Five images were collected per well for reliable statistical analysis. Automated image analysis was performed with a script developed on Acapella High Content Imaging and Analysis Software (PerkinElmer). Output: Number of H9c2 Host Cardiomyocytes nuclei to determine drug-related cytotoxicity.; assay type: functional, organism-based, Rattus norvegicus; details: H9c2, 4 h
Trypanosoma cruzi [4] = assay: as §1, with “Trypanosoma cruzi” for “H2C9”, “Infected Cells.” for “H9c2 Host Cardiomyocytes.”, “percentage” for “Number”, “infected cells per well as a second infection marker.” for “H9c2 Host Cardiomyocytes nuclei to determine drug-related cytotoxicity.”; assay type: functional, organism-based, Rattus norvegicus; details: H9c2, 4 h
[5] = test system: Trypanosoma brucei brucei; assay: GSK_TCAKS: pIC50 Trypanosoma brucei viability assay using luminiscence. Assay plates (1536-well) were prepared. T. brucei cultures were harvested and counted in a CASY cell counter. A parasite suspension was prepared at a final concentration of 5 * 10^4 cells/mL in complete HMI9 medium and 6uL was dispensed to all wells containing compounds using a Multidrop Combi dispenser. 6uL of HMI9 media with 0.4% DMSO were dispensed to control columns. Plates were incubated for 24 h at 37C, 5% CO2 then tempered for 10 min at room temperature. ATP content was quantified by adding 4 uL of CellTiter-Glo Reagent (Promega) according to the manufacturer's instructions. Luminescence was measured using a ViewLux.; assay type: functional, organism-based; details: Lister 427, CASY
Trypanosoma cruzi [6] = assay: GSK_TCAKS: pIC50 Trypanosoma cruzi viability assay using beta-GAL activity. This assay was run at single shot at 5uM compound concentration per well. The biological reagents consisted of NIH-3T3 host cells and trypomastigotes parasitic cells; both cell types were set to a 3.3 * 10^5 cells/mL dilution in assay DMEM by means of a CASY cell counter device using a 60um capillary. 6 uL of the mixture were dispensed per well (about 1 * 10^3 host-cells and 1 * 10^3 parasites) with a Multidrop Combi dispenser. […] In all wells, the percentage of DMSO never exceeded 0.5%. Plates incubated for four days at 37C, 5% CO2. The substrate used for the assay fluorescence intensity (FLINT) readout was resorufin-beta-D-galactopiranoside (Sigma-Aldrich) at 5uM per well. It was diluted in PBS supplemented with the soft detergent Igepal (Fluka).; assay type: functional, organism-based, Mus musculus; details: Tulahuen, NIH3T3
Leishmania donovani [7] = assay: GSK_TCAKS: pIC50 Leishmania donovani Imaging: Infected Macrophages. Assay plates (384-well) were prepared by adding 250nL of compound to each well. For single shot assay, the final compound concentration was 5 uM. […] Automated image analysis was performed with a script developed on Acapella High Content Imaging and Analysis Software (PerkinElmer). Output: Percent of infected macrophage cells were reported for each well.; assay type: functional, organism-based, Homo sapiens; details: THP-1
[8] = test system: Trypanosoma brucei brucei; assay: GSK_TCAKS: pIC50 Trypanosoma brucei viability assay using fluorescence intensity. Assay plates (1536-well) were prepared by dispensing 25nL of compound solution per well using an Echo acoustic dispenser (Labcyte).; assay type: functional, organism-based; details: Lister 427, 2 h
Leishmania donovani [9] = assay: GSK_TCAKS: pIC50 Leishmania donovani Imaging: Amastigotes/Macrophages. Assay plates (384-well) were prepared by adding 250nL of compound to each well. For single shot assay, the final compound concentration was 5 uM. […] Automated image analysis was performed with a script developed on Acapella High Content Imaging and Analysis Software (PerkinElmer). Output: Average number of amastigotes per macrophage cell were reported for each well.; assay type: functional, organism-based, Homo sapiens; details: THP-1
Leishmania donovani [10] = assay: GSK_TCAKS: pIC50 Leishmania donovani viability assay using fluorescence intensity. Assay plates (1536-well) were prepared by adding 30nL per well of compound. For single shot assay, the final compound concentration was 5uM. […] Briefly, eGFP LdBOB axenic amastigotes were harvested, fixed and counted in a CASY cell counter (Roche-Applied Science). A final concentration of 1.5 * 10^5 cells per well were prepared in amastigote media containing 500 U/mL penicillin/streptomycin (Invitrogen) and 6uL was dispensed to each experimental well using a Multidrop Combi dispenser (Thermo Scientific). 6uL of assay media was dispensed to control columns used as reference for 100% compound response. Following incubation for 72 h at 37C, 5% CO2, 2 uL of resazurin was added to each well at a final concentration of 0.5 mM in phosphate buffered saline (PBS) with IGEPAL (Sigma-Aldrich), 0.05% (v/v).; assay type: functional, organism-based
Leishmania donovani [11] = assay: GSK_TCAKS: pIC50 Leishmania donovani Imaging: THP-1 Host Macrophages. Assay plates (384-well) were prepared by adding 250nL of compound to each well. For single shot assay, the final compound concentration was 5 uM. […] Automated image analysis was performed with a script developed on Acapella High Content Imaging and Analysis Software (PerkinElmer). Output: THP-1 cell count were reported for each well.; assay type: functional, organism-based, Homo sapiens
Trypanosoma cruzi [12] = assay: as §1, with “Trypanosoma cruzi” for “H2C9”, “Amastigotes/Cell.” for “H9c2 Host Cardiomyocytes.”, “number” for “Number”, “amastigotes per cell as infection level measurement.” for “H9c2 Host Cardiomyocytes nuclei to determine drug-related cytotoxicity.”; assay type: functional, organism-based, Rattus norvegicus; details: H9c2, 4 h

| SMILES | IC50 (NIH3T3) | IC50 at 48 h [1] | IC50 [2] | IC50 (Trypanosoma cruzi [3]) | IC50 (Trypanosoma cruzi [4]) | IC50 [5] | IC50 (Trypanosoma cruzi [6]) | IC50 (Leishmania donovani [7]) | IC50 [8] | IC50 (Leishmania donovani [9]) | IC50 (Leishmania donovani [10]) | IC50 (Leishmania donovani [11]) | IC50 (Trypanosoma cruzi [12]) |
| --- | --- | --- | --- | --- | --- | --- | --- | --- | --- | --- | --- | --- | --- |
| CN(Cc1ccc(C(N)=O)cc1)C(c1ccc(F)cc1)c1cccnc1 (stereo not given) | 31.6 µM | > 100 µM | 0.1 µM | > 50.1 µM | 0.251 µM | > 39.8 µM | 0.158 µM | > 50.1 µM | > 39.8 µM | > 50.1 µM | > 50.1 µM | > 50.1 µM | 0.2 µM |
| CNc1cc(C)nc(C2CN(C(=O)c3n[nH]c4ccccc34)CCO2)c1 (stereo not given) | > 50.1 µM | > 100 µM | > 100 µM | > 50.1 µM | 2.51 µM | > 39.8 µM | 1.26 µM | > 50.1 µM | 20 µM | > 50.1 µM | > 50.1 µM | > 50.1 µM | 0.794 µM |
| Cc1ccccc1OCC(=O)N1CCCN(c2cccnn2)CC1 | 50.1 µM | > 100 µM | 0.0794 µM | > 50.1 µM | 0.631 µM | > 39.8 µM | 0.316 µM | > 50.1 µM | > 39.8 µM | > 50.1 µM | 12.6 µM | > 50.1 µM | 0.501 µM |
| Cc1ccc(S(=O)(=O)Nc2ccc(CN3CCN(C(=O)c4cccc(C#N)c4)CC3)cc2)cc1 | > 50.1 µM | > 100 µM | > 100 µM | > 50.1 µM | 0.501 µM | 0.316 µM | 0.501 µM | > 50.1 µM | 0.158 µM | 25.1 µM | 10 µM | > 50.1 µM | 0.398 µM |
| Cc1nccn1C1CCCN(C(=O)c2cc3c(F)cccc3s2)C1 (stereo not given) | 20 µM | > 100 µM | 50.1 µM | > 50.1 µM | 1 µM | > 39.8 µM | 0.631 µM | > 50.1 µM | > 39.8 µM | > 50.1 µM | 5.01 µM | > 50.1 µM | 0.794 µM |
| Cc1cc2cncn2c(C2CCCCN2C(=O)c2cccs2)n1 (stereo not given) | > 50.1 µM | > 100 µM | 0.1 µM | > 50.1 µM | 0.0631 µM | > 39.8 µM | 0.0251 µM | > 50.1 µM | > 39.8 µM | > 50.1 µM | 0.398 µM | > 50.1 µM | 0.0631 µM |
| CC(Cn1ccnc1)NC(=O)C1CC1c1cccc(Cl)c1Cl (stereo not given) | > 50.1 µM | > 100 µM | 0.126 µM | > 50.1 µM | 0.251 µM | > 39.8 µM | 0.141 µM | > 50.1 µM | > 39.8 µM | 10 µM | 15.8 µM | > 50.1 µM | 0.2 µM |
| COc1ccc2ncc(F)c(NC(=O)[C@]3(O)CC[C@@H](NCc4ccc5c(c4)OCCO5)CC3)c2n1 | 7.94 µM | 50.1 µM | 63.1 µM | 31.6 µM | 0.126 µM | 1.58 µM | 0.158 µM | 31.6 µM | 0.794 µM | 15.8 µM | 39.8 µM | 20 µM | 0.158 µM |
| O=C(C1CCCCC1)N1CCN(c2nnc(-c3ccccc3)c3ccccc23)CC1 | > 50.1 µM | > 100 µM | > 100 µM | > 50.1 µM | 0.631 µM | > 39.8 µM | 1 µM | > 50.1 µM | 10 µM | 20 µM | > 50.1 µM | 50.1 µM | 0.398 µM |
| O=C(Cn1cnc2cc([N+](=O)[O-])ccc2c1=O)NCCc1ccc(Cl)cc1Cl | > 50.1 µM | > 100 µM | > 100 µM | > 50.1 µM | 0.398 µM | > 39.8 µM | 0.631 µM | > 50.1 µM | 12.6 µM | > 50.1 µM | > 50.1 µM | > 50.1 µM | 0.2 µM |
